According to patent US20230295145A1, “PYRROLIDINE DERIVATIVES AND METHODS OF USE” (Genentech, Inc., priority 2020, published 2023):
pIC50: −log10 of the molar value. Like-named read-outs stand apart in the source and are kept apart here.

Experiments:
Type in all cases: cell-based
[1] = target: T1, VHL (Homo sapiens, UniProt P40337); experiment: VHL HEK-293 BRET Assay (VHL NanoBRET Target Engagement Assay); conditions: IC50 values measured in the presence of digitonin; HEK 293 RT VHL-NanoLuc stable cells; read-out: IC50 + Digi (μM)*
T1 construct: expressed in transfected cells

[2] = test system: ABC-1; experiment: Cell Viability Assay (CellTiter-Glo); conditions: 5 days
Experimental: (§1) Cell lines were cultured in RPMI-1640, 5% fetal bovine serum, and 2 mM glutamine in a humidified incubator maintained at 37° C. with 5% CO2. Cells were assessed with a Vi-CELL Cell Viability Analyzer (Beckman Coulter; Brea, CA); viability of at least 90% was required for screening. A Multidropä Combi Reagent Dispenser (Thermo Scientific; Waltham, MA) was used to plate cells into Falcons^â 384-well, black, clear-bottom plates (Catalog No. 353962; Corning; Tewksbury, MA) using seeding densities previous determined to achieve approximately 80% confluence at the final time point of the assay. The compounds were prepared at 1000× in advance using an Echo 555 liquid handler (Labcyte; Sunnyvale, CA) and stored in −80° C. until the day of compound addition. On the following day, cells were treated with compounds at final assay concentration 1 uM and 10 uM using a Bravo Automated Liquid-Handling Platform (Agilent; Santa Clara, CA). After 5 days, 25 mL CellTiter-Glo^â reagent was added using a MultiFloä Microplate Dispenser (BioTek; Winooski, VT). Cell lysis was induced by mixing for 30 minutes on an orbital shaker; plates were then incubated at room temperature for 10 minutes to stabilize the luminescent signal. Luminescence was read by a 2104 EnVision^â Multilabel Plate Reader (PerkinElmer; Waltham, MA).
(§2) The data was processed using Genedata Screener^â, Version 15 (Genedata; Basel, Switzerland) to assess compound effects on viability. Compound treated wells were normalized to the median value of 14 DMSO control wells on the same 384 well plate.

[3] = target: T1, VHL; experiment: VHL HEK-293 BRET Assay (VHL NanoBRET Target Engagement Assay); conditions: HEK 293 RT VHL-NanoLuc stable cells; read-out: IC50
Experimental: The VHL NanoBRET™ Target Engagement Assay analyzes the apparent affinity of test compounds for VHL in cells by competitive displacement of a VHL NanoBRET™ tracer reversibly bound to a NanoLuc® VHL fusion protein stably expressed in the cells.
Test compounds were transferred to the assay plate (384 Well White Non-Binding Corning Assay Plates (Corning-3574)) using an Echo 555 Liquid Handler (Labcyte) in 2.5 nL increments and, as appropriate, intermediate stock concentrations of compounds, in order to prepare a titration series. 50 nL of control compound (10 mM; parental unlabeled VHL antagonist; see structure below) and 50 nL of DMSO (negative control) were dispensed into the appropriate control wells. DMSO was backfilled to a final volume of 50 nL as required. 50 nl per well of 1 mM VHL NanoBRET™ Tracer in DMSO (NanoBRET™ Tracer-PEG2-590 (see structure below)) was transferred into each well using an Echo 555 (ultimately yielding a final concentration of 1 uM). HEK 293 RT VHL-NanoLuc® stable cells were cultured in DMEM High Glucose with Pyruvate, 10% fetal bovine serum, 2 mg/mL of Geneticin Selective Antibiotic (50 mg/mL) and 2 mM HEPES (1 M). Cells were seeded in Opti-MEM (Life Technologies-11058-021), 1.7×10^5 cells/mL, 40 μl per well into the assay plate, centrifuged at 500 rpm for 30 seconds and incubated for 2 hours. Max Signal control wells consisted of DMSO only treated wells. Minimum Signal control wells contained of 10 uM parental unlabeled VHL antagonist (control compound—see structure below). 3× Complete Substrate plus Inhibitor Solution was prepared in Opti-MEM (consists of a 1:166 dilution of NanoBRET™ Nano-Glo® Substrate plus a 1:500 dilution of Extracellular NanoLuc® Inhibitor in Opti-MEM), and 20 ul was dispensed into each well of the 384-well plate and centrifuged at 1000 rpm for 1 minute, then incubated for 2 minutes at room temperature. Background Signal control wells were prepared without tracer for background correction steps.
Plates were read using a PerkinElmer Envision Reader (model 2104-0020) equipped with Luminescence option (Mirror: BRET2 Enh (PE Barcode 659), Emission Filter: Omega 610LP (Barcode 504), 2nd Emission Filter: Umbelliferone 460 (Barcode 207), Measurement height: 6.5 mm, Measurement time: 1 s). The raw BRET ratio values were calculated by dividing the acceptor emission value (610 nm) by the donor emission value (460 nm) for each sample. To correct for background, the BRET ratio in the absence of tracer (average of no-tracer control samples) was subtracted from the BRET ratio of each sample. Raw BRET units were converted to milliBRET units (mBU) by multiplying each raw BRET value by 1,000. The normalized NanoBRET™ signal was calculated relative to the Max Signal control wells (DMSO treated control wells) and the Minimum Signal control wells. Percentage inhibition was calculated relative to the Minimum Signal control and Maximum Signal control wells. IC50 values were derived by four parameter curve fitting using the Robust method.

[4] = test system: NCI-H23; experiment: Cell Viability Assay (CellTiter-Glo); conditions: 1 μM, 5 days
Experimental: as §1, §2

[5] = test system: PANC-1; experiment: Cell Viability Assay (CellTiter-Glo); conditions: 10 μM, 5 days
Experimental: as §1, §2

T1 sequence (P40337 whole entry): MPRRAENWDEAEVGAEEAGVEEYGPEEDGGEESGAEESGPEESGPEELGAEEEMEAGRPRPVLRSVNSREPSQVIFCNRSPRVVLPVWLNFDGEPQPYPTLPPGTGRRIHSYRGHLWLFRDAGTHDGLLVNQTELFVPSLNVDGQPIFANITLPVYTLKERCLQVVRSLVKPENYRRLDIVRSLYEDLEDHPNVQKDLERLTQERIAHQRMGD

Structure (SMILES) | IC50 [1] [µM] | Normalized viability % DMSO ([2]; 10 μM) [% DMSO] | pIC50 [3] | Normalized viability % DMSO [4] [% DMSO] | Normalized viability % DMSO ([2]; 1 μM) [% DMSO] | Normalized viability % DMSO [5] [% DMSO]
CNC(=O)[C@@H]1C[C@@H](O)CN1C(=O)[C@@H](n1cc(COc2ccccc2F)nn1)C(C)(C)C [Compound 729, (2S,4R)-1-[(2S)-2-[4-[(2-fluorophenoxy)methyl]triazol-1-yl]-3,3-dimethyl-butanoyl]-4-hydroxy-N-methyl-pyrrolidine-2-carboxamide] | 1.48 | 35.8 | 6.02 | 7.4 |  | 
CNC(=O)C1CC(O)CN1C(=O)[C@@H](n1cc(C2CCC(C(=O)OC)CC2)nn1)C(C)(C)C (stereo in doubt) [Compound 829, Methyl 4-[1-[(1S)-1-[(2R,4S)-4-hydroxy-2-(methylcarbamoyl)pyrrolidine-1-carbonyl]-2,2-dimethyl-propyl]triazol-4-yl]cyclohexanecarboxylate] | 5.86 |  | 5.54 |  | 10.6 | 
CCC(CNC(=O)[C@@H]1C[C@@H](O)CN1C(=O)[C@@H](n1cc(C2CC2)nn1)C(C)(C)C)Oc1cccc(C(F)(F)F)c1 (stereo partly drawn) [Compound 493, (2S,4R)-1-[(2S)-2-(4-cyclopropyltriazol-1-yl)-3,3-dimethyl-butanoyl]-4-hydroxy-N-[2-[3-(trifluoromethyl)phenoxy]butyl]pyrrolidine-2-carboxamide] | 5.56 |  | 5.43 |  |  | 51.8
CC(C)(C)[C@@H](C(=O)N1C[C@H](O)C[C@H]1C(=O)N[C@@H]1C[C@@H](c2ccccc2)Oc2ccccc21)n1cc(C2CC2)nn1 [Compound 343, (2S,4R)-1-[(2S)-2-(4-cyclopropyltriazol-1-yl)-3,3-dimethyl-butanoyl]-4-hydroxy-N-[(2S,4R)-2-phenylchroman-4-yl]pyrrolidine-2-carboxamide] | 0.0321 | 44.1 | 7.81 |  |  | 
CCC(NC(=O)[C@@H]1C[C@@H](O)CN1C(=O)[C@@H](n1cc(C2CC2)nn1)C(C)(C)C)c1noc(-c2cccc(Br)c2)n1 (stereo partly drawn) [Compound 617, (2S,4R)-N-[1-[5-(3-bromophenyl)-1,2,4-oxadiazol-3-yl]propyl]-1-[(2S)-2-(4-cyclopropyltriazol-1-yl)-3,3-dimethyl-butanoyl]-4-hydroxy-pyrrolidine-2-carboxamide] | 1.35 |  | 6.08 |  |  | 69.8
CC[S+]([O-])C1CCCCC1NC(=O)[C@@H]1C[C@@H](O)CN1C(=O)[C@@H](n1cc(C2CC2)nn1)C(C)(C)C (stereo partly drawn) [Compound 554, (2S,4R)-1-[(2S)-2-(4-cyclopropyltriazol-1-yl)-3,3-dimethyl-butanoyl]-N-(2-ethylsulfinylcyclohexyl)-4-hydroxy-pyrrolidine-2-carboxamide] | 22.2 | 38.2 | 4.76 |  |  | 
CNC(=O)[C@@H]1C[C@@H](O)CN1C(=O)[C@@H](n1cc(-c2cnc(F)cc2C)nn1)C(C)(C)C [Compound 792, (2S,4R)-1-[(2S)-2-[4-(6-fluoro-4-methyl-3-pyridyl)triazol-1-yl]-3,3-dimethyl-butanoyl]-4-hydroxy-N-methyl-pyrrolidine-2-carboxamide] | 2.46 | 13.9 | 5.72 |  |  | 
CCc1onc(C)c1CNC(=O)[C@@H]1C[C@@H](O)CN1C(=O)[C@@H](n1cc(C2CC2)nn1)C(C)(C)C [Compound 405, (2S,4R)-1-[(2S)-2-(4-cyclopropyltriazol-1-yl)-3,3-dimethyl-butanoyl]-N-[(5-ethyl-3-methyl-isoxazol-4-yl)methyl]-4-hydroxy-pyrrolidine-2-carboxamide] | 3.18 | 7.6 | 5.63 |  |  | 
CC(C)(C)[C@@H](C(=O)N1C[C@H](O)C[C@H]1C(=O)NCc1ncc(-c2ccccc2)s1)n1cc(C2CC2)nn1 [Compound 140, (2S,4R)-1-[(2S)-2-(4-cyclopropyltriazol-1-yl)-3,3-dimethyl-butanoyl]-4-hydroxy-N-[(5-phenylthiazol-2-yl)methyl]pyrrolidine-2-carboxamide] | 0.0142 | 45.3 | 8.00 |  |  | 
